# Measured values published in patent publication EP4700036A1, “GLYCOLIPID DERIVATIVE AS MINCLE LIGAND” (The University of Osaka, priority 2023, dated 2024).
# Molecular target: T1, bovine Mincle (Bos taurus, UniProt E1BHM0)
# T1 construct: expressed in transfected cells
# T1 sequence (E1BHM0 1-211): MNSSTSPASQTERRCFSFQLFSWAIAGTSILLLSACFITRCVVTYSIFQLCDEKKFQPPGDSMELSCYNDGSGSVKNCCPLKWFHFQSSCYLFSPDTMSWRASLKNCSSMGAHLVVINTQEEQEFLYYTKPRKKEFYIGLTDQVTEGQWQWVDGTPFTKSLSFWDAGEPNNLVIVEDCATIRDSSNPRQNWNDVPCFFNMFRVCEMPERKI
# Assay: Mincle ligand activity, NFAT-GFP reporter cells expressing bovine Mincle
# Assay type: cell-based
# Conditions: 96-well plate, 0.03 to 3 nmol; Fig. 1 (right)
# Method: Similarly, using NFAT-GFP reporter cells expressing bovine Mincle, prepared according to the method described in a literature (Yamasaki, S. et al, Nat Immunol 9, 1179-88(2008)), the ligand activity of HD-276 was evaluated on a 96-well plate. The doses of the test compounds (horizontal axis) were 0.03 to 3 (nmol) from the left to right.
compound,measurement,value
CCCCCCc1ccc(O[C@@H]2O[C@@H](C)[C@H](O)[C@@H](OC)[C@H]2O[C@@H]2O[C@@H](C)[C@H](O[C@@H]3O[C@H](COC)[C@@H](O)[C@H](O)[C@H]3O)[C@@H](OC)[C@H]2OC)cc1 [HD-276],Mincle ligand activity (reporter activity),confirmed to have Mincle ligand activity
